Test systems include MOLT-4 leukemia; M19-MEL melanoma; SF-539 CNS; IGROV1 ovarian; DMS 114 small cell lung; OVCAR-4 ovarian; U251 CNS; HL-60(TB) leukemia; SNB-75 CNS; 786-0 renal.
Holding throughout (assay): NCI anticancer screen, dose series, 48 h

“And” between values parts separate entries of the source, which are not always exact repeats. Identical values can stand only once.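 Following 48 hours of exposure in 96-well plates, responses at five concentrations were used to interpolate endpoints linearly. GI50 = concentration required for 50% inhibition of growth. At the TGI there is no net growth.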 Where only a bound is given, the exact number is not on record here.

Regarding `Nc1nc(=S)c2[nH]cnc2[nH]1`, the GI50 is 368 nM and 488 nM in the test on MOLT-4 leukemia; 483 nM and 606 nM and 1410 nM in the test on SF-539 CNS; 3.23 µM and 6.02 µM in the test on IGROV1 ovarian; 573 nM and 4990 nM in the test on OVCAR-4 ovarian; 1.49 µM and 3.11 µM with U251 CNS; 894 nM in the test with HL-60(TB) leukemia. The GI50 in the test with 786-0 renal is 335 nM and 1450 nM and 1010 nM. Also, the TGI in the test with M19-MEL melanoma was 205 µM; with SF-539 CNS, 68.8 µM [middle of 4 runs]; with IGROV1 ovarian, > 96.1 µM and 150 µM and 162 µM; in the test with DMS 114 small cell lung, 36.3 µM; in the test with OVCAR-4 ovarian it was > 100 µM and 97.4 µM and 109 µM; with U251 CNS, > 100 µM and 241 µM and > 226 µM. Also, the TGI with HL-60(TB) leukemia is 9.38 µM and 17.5 µM and 2.37 µM; in the test with SNB-75 CNS, > 86 µM and 45.8 µM and > 250 µM.
On to `CN(C)c1ccc(N=C2C=CC(=C(C#N)C#N)c3ccccc32)cc1`, for which the TGI amounted to 8.04 µM in the test with MOLT-4 leukemia; 5.8 µM with M19-MEL melanoma; 0.576 µM in the test with SF-539 CNS; 6.11 µM in the test on IGROV1 ovarian; 0.666 µM in the test on DMS 114 small cell lung; 6.13 µM in the test with OVCAR-4 ovarian. In addition, the TGI in the test on U251 CNS was 6.53 µM; in the test on HL-60(TB) leukemia, 0.391 µM; in the test on SNB-75 CNS, 5.71 µM; in the test on 786-0 renal, 11.4 µM.
Turning to `COc1ccc(-c2cc(-c3ccco3)c(C#N)c(=O)[nH]2)cc1`, the TGI is over 100 µM in the test on MOLT-4 leukemia; over 100 µM in the test on M19-MEL melanoma; 53.9 µM in the test on SF-539 CNS; over 100 µM in the test on IGROV1 ovarian; over 100 µM in the test on DMS 114 small cell lung; over 100 µM with OVCAR-4 ovarian. Moreover, the TGI with U251 CNS was 40.1 µM; in the test on HL-60(TB) leukemia, over 100 µM; in the test on SNB-75 CNS, over 100 µM; with 786-0 renal, over 100 µM.
On to `Cc1nc(-n2nc(-c3ccccc3)cc2-c2ccccc2)sc1C(=O)/C=C/c1ccccc1`, for which the TGI in the test with MOLT-4 leukemia, in the test on M19-MEL melanoma, in the test on SF-539 CNS, in the test on IGROV1 ovarian, in the test on U251 CNS and in the test on HL-60(TB) leukemia was over 100 µM throughout. The TGI with SNB-75 CNS was 89.7 µM; in the test on 786-0 renal it was over 100 µM.
Regarding `N#CCCN(CCC#N)c1ccc(C=Nc2ccc(F)cc2)cc1`, the TGI is over 100 µM with MOLT-4 leukemia; over 44.5 µM in the test on M19-MEL melanoma; over 83.2 µM in the test on SF-539 CNS; over 100 µM in the test on IGROV1 ovarian; over 100 µM in the test with DMS 114 small cell lung; over 100 µM with OVCAR-4 ovarian. The TGI in the test with U251 CNS, in the test on HL-60(TB) leukemia, in the test on SNB-75 CNS and in the test on 786-0 renal was over 100 µM throughout.
For `O=C1CNN=C(Cn2nc(-c3ccccc3)c3ccccc3c2=O)N1`, the TGI in the test on MOLT-4 leukemia, in the test with M19-MEL melanoma, in the test with SF-539 CNS, in the test on IGROV1 ovarian, in the test with DMS 114 small cell lung and in the test with OVCAR-4 ovarian was over 100 µM in each case. For the same compound, the TGI in the test on U251 CNS, in the test on HL-60(TB) leukemia, with SNB-75 CNS and in the test on 786-0 renal was over 100 µM in each case.
Regarding `COc1ccc(C(=O)O/N=C2/CCCCC2CN(C)C)cc1` (stereo not drawn), the TGI in the test on MOLT-4 leukemia, in the test on M19-MEL melanoma, with SF-539 CNS, in the test on IGROV1 ovarian, in the test on OVCAR-4 ovarian and with U251 CNS was over 100 µM each time. In addition, the TGI with HL-60(TB) leukemia, in the test on SNB-75 CNS and in the test with 786-0 renal was over 100 µM in each case.
Take `Nc1ccc(C(=O)/C=C/c2ccccc2O)cc1`: the TGI with MOLT-4 leukemia, in the test on M19-MEL melanoma, in the test on SF-539 CNS, in the test on IGROV1 ovarian, in the test on OVCAR-4 ovarian and in the test on U251 CNS was over 100 µM throughout. Also, the TGI with HL-60(TB) leukemia, in the test with SNB-75 CNS and in the test with 786-0 renal was over 100 µM in each case.
On to `COc1ccc2c(c1)[n+](=O)c(C(C)=O)c(C)n2[O-]`, for which the TGI in the test with MOLT-4 leukemia, in the test with M19-MEL melanoma, in the test on SF-539 CNS, in the test on IGROV1 ovarian, in the test on DMS 114 small cell lung and with OVCAR-4 ovarian was over 100 µM throughout. The TGI in the test with U251 CNS, in the test with HL-60(TB) leukemia and in the test with 786-0 renal was over 100 µM in each case.
Take `NNC(=O)N/N=C1\CN(c2ccc(Cl)cc2Cl)C(=O)C(=O)C1c1nc2ccccc2o1` (stereo not drawn): the TGI in the test with MOLT-4 leukemia, with M19-MEL melanoma, with SF-539 CNS, in the test on IGROV1 ovarian, in the test with DMS 114 small cell lung and with OVCAR-4 ovarian was over 100 µM in each case. The TGI in the test with U251 CNS, in the test with SNB-75 CNS and in the test on 786-0 renal was over 100 µM each time.
Regarding `CCOc1ccccc1NC(=O)C1=C(C)NC(C)=C(C(=O)Nc2ccccc2OCC)C1c1ccc([N+](=O)[O-])cc1`, the TGI in the test on M19-MEL melanoma, with SF-539 CNS, with IGROV1 ovarian, in the test on DMS 114 small cell lung, with OVCAR-4 ovarian and in the test on U251 CNS was over 100 µM throughout. Also, the TGI in the test on HL-60(TB) leukemia, in the test with SNB-75 CNS and in the test with 786-0 renal was over 100 µM throughout.
As for `CC(=O)OCC1OC(n2c(=S)n(-c3ccccc3)c(=O)c3cc(Br)cc(Br)c32)C(OC(C)=O)C(OC(C)=O)C1OC(C)=O` (stereo not drawn), the GI50 in the test on MOLT-4 leukemia was 36800 nM; in the test on SF-539 CNS it was 43900 nM and > 100000 nM; in the test on IGROV1 ovarian, 35.8 µM and > 100 µM; in the test with U251 CNS, 20 µM and 91.9 µM; in the test with 786-0 renal, 25700 nM and 98700 nM. For the same compound, the TGI in the test with MOLT-4 leukemia, with M19-MEL melanoma, in the test with SF-539 CNS, with IGROV1 ovarian, in the test on DMS 114 small cell lung and with U251 CNS was over 100 µM each time. Also, the TGI was over 100 µM in the test on HL-60(TB) leukemia; 92.5 µM and > 100 µM in the test on SNB-75 CNS; over 100 µM in the test on 786-0 renal.
As for `CCCCCCCCCCCCCCC(C)CCC(=O)O` (stereo not drawn), the TGI in the test on M19-MEL melanoma, with SF-539 CNS, in the test with IGROV1 ovarian, in the test with OVCAR-4 ovarian, in the test with U251 CNS and in the test with SNB-75 CNS was over 100 µM throughout. Also, the TGI in the test on 786-0 renal was over 100 µM.
Consider `COCC1N=C(c2cc(OC)c(OC)c(OC)c2-c2cc3c(cc2[C@H](C)O)OCO3)O[C@H]1c1ccccc1` (stereo partly drawn), for which the TGI in the test on MOLT-4 leukemia, in the test with M19-MEL melanoma, with SF-539 CNS, in the test with IGROV1 ovarian, in the test with OVCAR-4 ovarian and in the test on U251 CNS was over 100 µM each time. Besides, the results for the TGI in the test on HL-60(TB) leukemia, in the test with SNB-75 CNS and in the test with 786-0 renal were over 10 µM, over 100 µM and over 100 µM, respectively.

For the origin of these results see PubChem BioAssay (NCI).
